Assay results taken from patent US7514094B2, “Pesticidal composition” (Ishihara Sangyo Kaisha, Ltd., priority 2000, dated 2009).

Tests used:
Assay type in all cases: in vivo
Thrips palmi [1] = assay: Insecticidal test of Thrips palmi (test in a vinyl house); settings: 288 h
Procedure: Insecticidal test of Thrips palmi (test in a vinyl house)
An agrochemical liquid diluted to a predetermined concentration was applied by a shoulder sprayer on a 6 to 8 foliate eggplant having Thrips palmi parasitic thereon in an amount of 100 l per 10 are. The numbers of the parasitic insects were counted before treatment and 12 days after the treatment, and a Percent Control was calculated in the same manner as in Test Example 1, and the results are shown in the following Table 4.
Also, a theoretical value of the Percent Control […] calculated in accordance with the Colby formula in the same manner as in Test Example 2 are shown in parenthesis in the following Table 4.

Thrips palmi [2] = assay: Insecticidal test (2) of Thrips palmi on potted eggplant, spray; settings: Compound No. 1 0 ppm, 7 days after treatment
Procedure: Insecticidal test on (2) of Thrips palmi
An agrochemical liquid diluted to a predetermined concentration was applied by a spray gun to a 10 to 12 folite eggplant having Thrips palmi parasitic thereon in a pot so as to make the eggplant fully wet with the agrochemical liquid and the pot was placed in a greenhouse.
The numbers of the parasitic insects were counted […] before treatment and 7 days after the treatment, and a Percent Control was calculated in the same manner as in Test Example 1, and the results are shown in the following Table 2.
Also, a theoretical mortality value (%) was calculated in accordance with the following Colby formula. When value of the Percent Control is higher than the theoretical value of the Percent Control (in accordance with the Colby formula), it is considered that the pesticidal composition of the present invention achieves a synergistic pesticidal effect. The theoretical values of the Percent Control calculated in accordance with the Colby formula are shown in parentheses in the following Table 2. Theoretical value of the Percent Control=100−(X×Y)/100 • X: 100−(Percent Control in case of treating with Compound No. 1 only) • Y: 100−(Percent Control in case of treating with Chlorfluazuron only)

Thrips palmi [3] = assay: Insecticidal test (1) of Thrips palmi on potted eggplant, spray; settings: Compound No. 1 0 ppm, 3 days after treatment
Procedure: Insecticidal test (1) of Thrips palmi
An agrochemical liquid diluted to a predetermined concentration was applied by a spray gun to a 10 to 12-foliate eggplant having Thrips palmi parasitic thereon in a pot so as to make the eggplant fully wet with the agrochemical liquid and the pot was placed in a greenhouse. The numbers of the parasitic insects were counted before treatment and three days after the treatment, and a Percent Control was calculated in accordance with the following formula and the results are shown in the following Table 1. Percent Control=100−((Ta×Cb)/(Tb×Ca)×100) • Ta: Number of insects per treated plants after treatment • Tb: Number of insects per treated plants before treatment • Ca: Number of insects per untreated plants after treatment • Cb: Number of insects per untreated plants before treatment
Also, a theoretical value of the Percent Control was calculated in accordance with the following Colby formula.
When value of the Percent Control is higher than the theoretical value (%) (in accordance with the Colby formula), it is considered that the pesticidal composition of the present invention achieves a synergistic pesticidal effect. The theoretical values of the Percent Control calculated in accordance with the Colby formula are shown in parentheses in the following Table 1. […]

[4] = system: Western Flower Thrips Frankliniella occidentalis; assay: Insecticidal test of Western Flower Thrips on potted eggplant, spray; settings: 48 h
Text: Insecticidal test of Western Flower Thrips Frankliniella occidentalis
An agrochemical liquid diluted to a predetermined concentration was applied by a spray gun to a 10 to 12 foliate eggplant having Western Flower Thrips Frankliniella occidentalis parasitic thereon in a pot so as to make the eggplant fully wet with the agrochemical liquid, and the pot was placed in a greenhouse. The numbers of the parasitic insects were counted before treatment and 2 days after the treatment, and a Percent Control was calculated in the same manner as in Test Example 1.
Also, a theoretical value of the Percent Control was calculated in accordance with the Colby formula in the same manner as in Test Example 1 and the results are shown in parenthesis in the following Table 3.

| Compound | mortality at 25 ppm (Thrips palmi [1]) [%] | Percent Control (Thrips palmi [2]; Chlorfluazuron 12.5 ppm) [%] | Percent Control (Thrips palmi [2]; Chlorfluazuron 25 ppm) [%] | Percent Control (Thrips palmi [3]; Flufenoxuron 12.5 ppm) [%] | Percent Control (Thrips palmi [3]; Flufenoxuron 25 ppm) [%] | mortality at 25 ppm [4] [%] |
| --- | --- | --- | --- | --- | --- | --- |
| O=C(NC(=O)c1c(F)cccc1F)Nc1cc(Cl)c(Oc2ncc(C(F)(F)F)cc2Cl)c(Cl)c1 [Chlorfluazuron (E-2), Chlorfluazuron] | 58 | 55 | 52 |  |  |  |
| O=C(NC(=O)c1c(F)cccc1F)Nc1ccc(Oc2ccc(C(F)(F)F)cc2Cl)cc1F [Flufenoxuron (E-4), Flufenoxuron] |  |  |  | 70 | 67 | 31 |
